The inhibition is how much of the control response was suppressed. Read a low inhibition as a weak effect. As a reminder, the Km is the concentration of substrate that gives half-maximal velocity.

Series [1] deals with Canavalia ensiformis. The experiment in a line: Percent inhibition against alpha-D-mannosidase from jack bean at 1 mM concentration.
Series [2] concerns Clostridium perfringens. In words: Percent inhibition against neuraminidase from Type X, Clostridium perfringens at 1 mM concentration.
Substrate in series [3]: Cc1cc(=O)oc2cc(OC3O[C@H](C)[C@H](O)[C@H](O)[C@H]3O)ccc12
In words: The Michaelis-Menten constant against alpha-L-fucosidase from solubilized human neutrophils was determined.

Consider `C[C@@H]1NC[C@@H](O)[C@H](O)[C@@H]1O`, for which the inhibition in series [1] came out at 83%; in series [2], 50%.

As to `CC1NC(CO)[C@@H](O)C(O)[C@@H]1O` (single isomer, unassigned), the inhibition in series [1] and in series [2] was 0% in each case.

B1: Plasma alpha-L-fucosidase (Homo sapiens), Q9BTY2 (protein)
chain: MRPQELPRLAFPLLLLLLLLLPPPPCPAHSATRFDPTWESLDARQLPAWFDQAKFGIFIHWGVFSVPSFGSEWFWWYWQKEKIPKYVEFMKDNYPPSFKYEDFGPLFTAKFFNANQWADIFQASGAKYIVLTSKHHEGFTLWGSEYSWNWNAIDEGPKRDIVKELEVAIRNRTDLRFGLYYSLFEWFHPLFLEDESSSFHKRQFPVSKTLPELYELVNNYQPEVLWSDGDGGAPDQYWNSTGFLAWLYNESPVRGTVVTNDRWGAGSICKHGGFYTCSDRYNPGHLLPHKWENCMTIDKLSWGYRREAGISDYLTIEELVKQLVETVSCGGNLLMNIGPTLDGTISVVFEERLRQMGSWLKVNGEAIYETHTWRSQNDTVTPDVWYTSKPKEKLVYAIFLKWPTSGQLFLGHPKAILGATEVKLLGHGQPLNWISLEQNGIMVELPQLTIHQMPCKWGWALALTNVI
Take B1: the Km in series [3] was 250 µM.

The record behind these values is ChEMBL document CHEMBL1150025, “Synthesis of and glycosidase inhibition by -l-homofuconojirimycin” (Bioorg Med Chem Lett, 1993).
